Test results reported in US8906866B2, “Antibiotic compositions for the treatment of gram negative infections” (priority 2010, dated 2014).
Where a SMILES comes first, the peptide text is derived from it. Bridges are numbered along the chain shown (N, C = ends). [ ]: non-standard residue; d: D form. The star is where a group is joined. ξ: configuration not given here. Octanoyl(6-Me) = CCC(C)CCCCC(=O)*; Thr(3ξ) = CC(O)[C@H](N)C(=O)O; Dab = NCC[C@H](N)C(=O)O; ξDab = NCCC(N)C(=O)O

How the values were obtained:
P. aeruginosa 44 [1] = assay: Neutropenic mouse lung infection model; format: in vivo; settings: for Lungs cleared within one log10 of limit of detection: 8 through 20 mg/kg dose levels; for ED−3log10: neutropenic mouse lung, P. aeruginosa 44, SC, BID×1 d, cfu 24 hours post-infection
Protocol: Compound of Formula (Ia) was tested in a murine thigh model. For the thigh model, female CD-1 mice were rendered neutropenic by IP injection on days −4 and −1 with 150 and 100 mg/kg cyclophosphamide, respectively. On day 0 mice were infected with 1×10^7 colony-forming units (cfu) of A. baumannii 1570 in one thigh muscle, and then administered compound SC in a dose ranging from 2 to 12 mg/kg at 1 and 6 hours post-infection.
The mouse lung model was run in the same manner as the thigh infection model, except that mice were infected IN with 1×10^7 cfu of P. aeruginosa 44 on day 0. Doses administered in the lung study ranged from 8 to 20 mg/kg. The ED−3log10 was based on cfu determination from the lung tissue 24 hours post-infection.

P. aeruginosa #44 [2] = assay: MICs for P. aeruginosa #44 in the presence of surfactant; format: cell-based, Pseudomonas aeruginosa; set-up: key: A: a MIC value measurement that is the same as that observed for polymyxin B; a MIC value measured that is lower than the comparable value observed for polymxin B; a MIC value measured that is higher than the comparable value observed for polymyxin B
Protocol: (§1) Antibacterial potency can be assessed by broth microdilution according to CLSI guidelines, plates can be incubated at 37° C., and aeration (rotation at 200 rpm) can be employed. In some assays, surfactant (Survanta, Abbott Laboratories) can be added to give a final concentration of 1, 10 and 40% in caMHB. Native polymyxin A, polymyxin B and the comparator compound of Formula II (polymyxin B decapeptide with an o-chlorophenyl urea tail) were included for comparison.

E. coli [3] = assay: MIC50 and MIC90, CLSI broth microdilution, panel of Gram negative strains; format: cell-based, Escherichia coli; set-up: key: A: a measured MIC value equal to that of polymyxin B; a measured MIC value less than the corresponding MIC value measured for polymyxin B; a measured MIC value greater than the corresponding MIC value measured for polymyxin B; settings: relative to polymyxin B; some strains multi-drug resistant
Protocol: (§2) MIC testing can be performed according to Clinical and Laboratory Standards Institute (CLSI) M7-A7 (2006) broth microdilution methods. Unless otherwise indicated, MIC values are provided in units of micrograms per milliliter.
(§3) One day prior to testing, individual colonies were isolated by streaking onto rich, non-selective Tryptic Soy agar with 5% lysed sheeps blood (TSAB) with incubation at 35-37° C. for 18-24 hours.
(§4) Cultures were prepared by touching 3-5 colonies into 3 mL of cation-adjusted Mueller Hinton Broth (caMHB) in a 14-mL tube (caMHB was prepared and sterilized according to manufacturer's specifications).
(§5) OD600 of growing cultures was measured and adjusted to approximately 10^5 colony forming units per mL (CFU/mL) in caMHB for MIC inoculation (approximately OD600 0.001).
(§6) Diluted cultures were used to inoculate 50 μL per well in broth microdilution assays (final volume 100 μl per well; compounds were prepared in two-fold dilutions).
(§7) Plates were incubated 16-20 hours at 37° C., with shaking at 200 rpm.
(§8) OD600 was determined for all wells. Growth was defined as OD600>0.1. MICs were defined as the lowest concentration producing no visible turbidity (OD600<0.1).

K. pneumoniae 933 = assay: MIC against the primary screening panel (broth microdilution); format: cell-based, Klebsiella pneumoniae; set-up: key: A: a MIC value measurement that is the same as that observed for polymyxin B; a MIC value measured that is lower than the comparable value observed for polymxin B; a MIC value measured that is higher than the comparable value observed for polymyxin B; settings: relative to polymyxin B
Protocol: as §1

E. coli [4] = assay: MIC50/90 against small panels (n = 35); format: cell-based, Escherichia coli; set-up: key: A: a MIC value measurement that is the same as that observed for polymyxin B; a MIC value measured that is lower than the comparable value observed for polymxin B; a MIC value measured that is higher than the comparable value observed for polymyxin B; settings: small panel n = 35, relative to polymyxin B
Protocol: as §1

P. aeruginosa 44 [5] = assay: MIC against the primary screening panel (broth microdilution); format: cell-based, Pseudomonas aeruginosa; set-up: key: A: a MIC value measurement that is the same as that observed for polymyxin B; a MIC value measured that is lower than the comparable value observed for polymxin B; a MIC value measured that is higher than the comparable value observed for polymyxin B; settings: relative to polymyxin B
Protocol: as §1

P. aeru = assay: MIC50 and MIC90, CLSI broth microdilution, panel of Gram negative strains; format: cell-based, Pseudomonas aeruginosa; set-up: key: A: a measured MIC value equal to that of polymyxin B; a measured MIC value less than the corresponding MIC value measured for polymyxin B; a measured MIC value greater than the corresponding MIC value measured for polymyxin B; settings: relative to polymyxin B; some strains multi-drug resistant
Protocol: as §2, §3, §4, §5, §6, §7, §8

A. baumannii 1570 = assay: MIC against the primary screening panel (broth microdilution); format: cell-based, Acinetobacter baumannii; set-up: key: A: a MIC value measurement that is the same as that observed for polymyxin B; a MIC value measured that is lower than the comparable value observed for polymxin B; a MIC value measured that is higher than the comparable value observed for polymyxin B; settings: relative to polymyxin B
Protocol: as §1

K. pneumoniae = assay: MIC50/90 against small panels (n = 35); format: cell-based, Klebsiella pneumoniae; set-up: key: A: a MIC value measurement that is the same as that observed for polymyxin B; a MIC value measured that is lower than the comparable value observed for polymxin B; a MIC value measured that is higher than the comparable value observed for polymyxin B; settings: small panel n = 35, relative to polymyxin B
Protocol: as §1

[6] = test system: Gram negative bacterial strains; assay: Potency and spectrum against a panel of Gram negative bacterial strains; format: cell-based
Text: The potency and spectrum of Compound 5 was studied using a panel of Gram negative bacterial strains.
as §2

P. aeruginosa = assay: MIC50/90 against small panels (n = 35); format: cell-based, Pseudomonas aeruginosa; set-up: key: A: a MIC value measurement that is the same as that observed for polymyxin B; a MIC value measured that is lower than the comparable value observed for polymxin B; a MIC value measured that is higher than the comparable value observed for polymyxin B; settings: small panel n = 35, relative to polymyxin B
Protocol: as §1

A. baum = assay: MIC50 and MIC90, CLSI broth microdilution, panel of Gram negative strains; format: cell-based, Acinetobacter baumannii; set-up: key: A: a measured MIC value equal to that of polymyxin B; a measured MIC value less than the corresponding MIC value measured for polymyxin B; a measured MIC value greater than the corresponding MIC value measured for polymyxin B; settings: relative to polymyxin B; some strains multi-drug resistant
Protocol: as §2, §3, §4, §5, §6, §7, §8

[7] = Acute toxicity testing in rats; format: in vivo, Sprague-Dawley rat; settings: 1 mg/kg i.v.
Protocol: One female Sprague-Dawley rat was administered a 1 mg/kg dose of the test Compound 5. Clinical observations were taken immediately following the administration of compound and at 0.5, 1, 2 and 4 hours post-dose.

K. pneu = assay: MIC50 and MIC90, CLSI broth microdilution, panel of Gram negative strains; format: cell-based, Klebsiella pneumoniae; set-up: key: A: a measured MIC value equal to that of polymyxin B; a measured MIC value less than the corresponding MIC value measured for polymyxin B; a measured MIC value greater than the corresponding MIC value measured for polymyxin B; settings: relative to polymyxin B; some strains multi-drug resistant
Protocol: as §2, §3, §4, §5, §6, §7, §8

E. coli 1527 = assay: MIC against the primary screening panel (broth microdilution); format: cell-based, Escherichia coli; set-up: key: A: a MIC value measurement that is the same as that observed for polymyxin B; a MIC value measured that is lower than the comparable value observed for polymxin B; a MIC value measured that is higher than the comparable value observed for polymyxin B; settings: relative to polymyxin B
Protocol: as §1

P. aeruginosa #44 [8] = assay: MIC against P. aeruginosa #44 in polystyrene plate; format: cell-based, Pseudomonas aeruginosa; settings: range of repeated tests
Protocol: P. aeruginosa #44 were grown in cation adjusted Mueller Hinton Broth (caMHB) (catalog#B12322; Fisher Scientific, Pittsburgh, Pa.) at 37° C. MIC testing was performed according to Clinical and Laboratory Standards Institute [CLSI, formerly National Committee for Clinical Laboratory Standards (NCCLS), Wayne, Pa.] guidelines for broth microdilution. […]

A. baumannii = assay: MIC50/90 against small panels (n = 35); format: cell-based, Acinetobacter baumannii; set-up: key: A: a MIC value measurement that is the same as that observed for polymyxin B; a MIC value measured that is lower than the comparable value observed for polymxin B; a MIC value measured that is higher than the comparable value observed for polymyxin B; settings: small panel n = 35, relative to polymyxin B
Protocol: as §1

| SMILES | Lungs cleared within one log10 of limit of detection (P. aeruginosa 44 [1]) | ED−3log10 (P. aeruginosa 44 [1]) [mg/kg] | E. coli MIC50 (E. coli [3]) | E. coli MIC90 (E. coli [3]) | MIC K. pneumoniae 933 (K. pneumoniae 933) | E. coli MIC50 (E. coli [4]) | E. coli MIC90 (E. coli [4]) | MIC P. aeruginosa 44 (P. aeruginosa 44 [5]) | P. aeru MIC 50 (P. aeru) | P. aeru MIC 90 (P. aeru) | MIC A. baumannii 1570 (A. baumannii 1570) | K. pneumoniae MIC50 (K. pneumoniae) | K. pneumoniae MIC90 (K. pneumoniae) | P. aeruginosa MIC50 (P. aeruginosa) | P. aeruginosa MIC90 (P. aeruginosa) | A. baum MIC 50 (A. baum) | A. baum MIC 90 (A. baum) | K. pneu MIC 50 (K. pneu) | K. pneu MIC 90 (K. pneu) | MIC E. coli 1527 (E. coli 1527) | also measured |
| --- | --- | --- | --- | --- | --- | --- | --- | --- | --- | --- | --- | --- | --- | --- | --- | --- | --- | --- | --- | --- | --- |
| CC(C)C[C@H]1NC(=O)[C@H](CCN)NC(=O)[C@@H](NC(=O)[C@@H](CCN)NC(=O)[C@@H](NC(=O)[C@H](CCN)NC(=O)[C@H]2C[C@@H]2c2ccccc2)C(C)O)CCNC(=O)[C@H](C(C)O)NC(=O)[C@H](CCN)NC(=O)[C@H](CCN)NC(=O)[C@H](C(C)O)NC1=O (single isomer, unassigned) [Compound 5] | Lungs cleared within one log10 of limit of detection | 6.35 | C | A | C | C | A | C | A | C | C | C | C | A | C | C | C | C | C | A | MIC P. aeruginosa #44, 0% surfactant (P. aeruginosa #44 [2]; relative to polymyxin B): C; MIC P. aeruginosa #44, 10% surfactant (P. aeruginosa #44 [2]; relative to polymyxin B): B; MIC P. aeruginosa #44, 40% surfactant (P. aeruginosa #44 [2]; relative to polymyxin B): B; activity against E. coli, K. pneumonia, P. Aeruginosa and A. baumanni isolates [6]: active; activity against multi-drug resistant strains [6]: active against multi-drug resistant strains; time by which rat had no clinical signs ([7]; 1 female Sprague-Dawley rat): ≤ 1 h; Acute (anaphylactoid) observations ([7]; female Sprague-Dawley rat): anaphylactoid response was observed; MIC against P. aeruginosa #44 In polystyrene plate (P. aeruginosa #44 [8]): 1-2 micrograms/ml; A. baumannii MIC50 (A. baumannii): C; A. baumannii MIC90 (A. baumannii): C |
| CCC(C)CCCCC(=O)N[C@@H](CCN)C(=O)N[C@H](C(=O)N[C@@H](CCN)C(=O)NC1CCNC(=O)[C@H](C(C)O)NC(=O)[C@H](CCN)NC(=O)C(CCN)NC(=O)[C@H](CC(C)C)NC(=O)[C@@H](Cc2ccccc2)NC(=O)[C@H](CCN)NC1=O)C(C)O (stereo partly drawn) [Polymyxin B] ({Octanoyl(6-Me)}-[Dab][Thr(3ξ)][Dab][ξDab][Dab][dF]L[ξDab][Dab][Thr(3ξ)]; lactam 4-C) | not observed | > 20 | A | A | A | A | A | A | A | A | A | A | A | A | A | A | A | A | A | A | ED−3log10 (P. aeruginosa 44 [1]; listed as PMB): 20.6 mg/kg; MIC P. aeruginosa #44, 0% surfactant (P. aeruginosa #44 [2]): 0.06 micrograms/ml; MIC P. aeruginosa #44, 10% surfactant (P. aeruginosa #44 [2]): 8 micrograms/ml; MIC P. aeruginosa #44, 40% surfactant (P. aeruginosa #44 [2]): >32 micrograms/ml; MIC against P. aeruginosa #44 In polystyrene plate (P. aeruginosa #44 [8]): 1-2 micrograms/ml; A. baumannii MIC50 (A. baumannii): A; A. baumannii MIC90 (A. baumannii): A |
